For this data set the following is noted: DSC.

SMILES strings stand for the structures. Numbers after ± are expanded uncertainties.

With `Cc1ccc2c(c1)OCN(c1ccc(Cc3ccc(N4COc5cc(C)ccc5C4)cc3)cc1)C2`, for the setting “Crystal”, the Triple point temperature stood at 435.15 ± 10 K. For the molecule `Cc1cc(C)c2c(c1)CN(c1ccc(Cc3ccc(N4COc5c(C)cc(C)cc5C4)cc3)cc1)CO2`, the Triple point temperature reads like this: (Crystal 1) 406.15 ± 10 K; (Crystal 2) 390.15 ± 10 K. For `c1ccc2c(c1)CN(c1ccc(Cc3ccc(N4COc5ccccc5C4)cc3)cc1)CO2` [bis(4-(2H-benzo[e][1,3]oxazin-3(4H)-yl)phenyl)methane], the Triple point temperature stood at 357.15 ± 10 K (Crystal 1) and 328.15 ± 10 K (Crystal 2). On to `Cc1ccc2c(c1)CN(c1ccc(Cc3ccc(N4COc5ccc(C)cc5C4)cc3)cc1)CO2`, for which the Triple point temperature (Crystal 1) is recorded as 432.15 ± 10 K.

The values above are taken from the NIST ThermoML archive (doi:10.1016/j.tca.2018.08.012).
